Data set [1] deals with T1, purified soybean lipoxygenase (LOX-1) (Glycine max, UniProt P08170).
T1 construct: Soybean lipoxygenase (LOX-1) is purified according to the method of Axelrod et al; from tissue; host or cells: soybean seeds (Hardee variety), dehulled and defatted
T1 sequence (P08170 1-839): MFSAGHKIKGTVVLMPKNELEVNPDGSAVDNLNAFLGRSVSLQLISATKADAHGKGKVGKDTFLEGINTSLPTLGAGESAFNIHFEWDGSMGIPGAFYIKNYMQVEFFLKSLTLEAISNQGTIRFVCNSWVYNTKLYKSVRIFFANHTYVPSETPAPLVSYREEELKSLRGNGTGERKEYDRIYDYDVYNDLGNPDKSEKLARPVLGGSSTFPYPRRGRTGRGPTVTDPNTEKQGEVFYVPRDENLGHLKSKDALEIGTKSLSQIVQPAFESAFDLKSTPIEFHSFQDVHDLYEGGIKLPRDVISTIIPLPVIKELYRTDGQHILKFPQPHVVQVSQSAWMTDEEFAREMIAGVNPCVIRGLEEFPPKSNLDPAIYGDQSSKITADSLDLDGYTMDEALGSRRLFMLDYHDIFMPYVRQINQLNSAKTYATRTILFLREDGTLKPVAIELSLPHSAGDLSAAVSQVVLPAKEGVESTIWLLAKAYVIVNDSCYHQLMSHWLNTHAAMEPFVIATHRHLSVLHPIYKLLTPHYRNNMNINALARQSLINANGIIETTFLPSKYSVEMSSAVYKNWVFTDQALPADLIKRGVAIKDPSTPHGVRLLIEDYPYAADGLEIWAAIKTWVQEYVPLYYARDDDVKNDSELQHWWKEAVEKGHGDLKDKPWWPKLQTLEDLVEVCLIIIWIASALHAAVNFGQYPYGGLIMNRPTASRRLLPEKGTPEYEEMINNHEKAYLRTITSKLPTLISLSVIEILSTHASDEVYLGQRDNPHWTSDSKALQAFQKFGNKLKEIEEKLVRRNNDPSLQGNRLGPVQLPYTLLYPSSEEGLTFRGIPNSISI
The data set is described as follows: Soybean lipoxygenase (LOX-1) inhibition, absorbance at 234 nm. The class given is biochemical. To be noted: as stated in embodiment b50; read-out: IC50 against purified soybean lipoxygenase. The procedure:
Soybean lipoxygenase (LOX-1) is purified according to the method of Axelrod et al., lipoxygenase from soybeans. Methods in Enzymology 1981, 71, 441–451, using the Hardee variety of soybean, after dehulling and defatting by hexane. The substrate, sodium linoleate (10 mM) is prepared as follows:
To 70 mg of linoleic acid an equal weight of Tween-20 and 4 ml of oxygen free water is added and homogenized by drawing back and forth in a pasture pipette, avoiding air bubbles. Sufficient quantity of 0.5 N NaOH is added to this to yield a clear solution. The resulting sodium linoleate is divided into 1–2 mL portions in small screw cap vials, flushed with N2 before closing, and keep frozen until needed. Enzyme reaction is carried out at 25° C. in a quartz cuvette with a 1 cm light path. The assay mixture contained (2.975−x) ml of borate buffer (0.2 M, pH 9.0), 0.025 ml of sodium linoleate substrate, and x mL of enzyme. After each addition the mixture is stirred with a few strokes of a plastic paddler. The reference cuvette contained no enzyme. Absorption at 234 nm is recorded, and the reaction rate is determined from the slope of the straight-line portion of the curve.

The target of data set [2] is T2, crude rat lens aldose reductase (Rattus norvegicus, UniProt P07943).
T2 construct: from tissue; host or cells: rat eye lens homogenate, 10,000 r.p.m. supernatant
The data set is described as follows: Rat lens aldose reductase inhibition, decrease in absorbance at 340 nm. The format is biochemical. To be noted: as stated in embodiment b50; read-out: IC50 against crude rat lens aldose reductase. The procedure:
Lens are collected from rat eyes and homogenised with sodium, potassium phosphate buffer (0.135 M, pH 7.0) containing 0.5 mM of phenyl methyl sulphonyl fluoride and 10 mM of p-mercaptoethanol. The homogenate is centrifuged at 10,000 r.p.m for 30 minutes at 4° C. The supernatant is taken as enzyme source. Enzyme reaction is carried out at 25° C. in a quartz cuvette with a 1-cm light path. The assay mixture contained 100 μL of nicotinamide adenine dinucleotide phosphate tetra sodium salt (from a stock solution of 9.6 mM), 100 μL of DL-glyceraldehyde (from a stock solution of 250 mM), 10 μL of inhibitor dissolved in dimethyl sulphoxide, sodium-potassium-phosphate buffer (0.135 M, pH 7.0) to make up the total volume to […] and the reaction is initiated by the addition of 200 μL of enzyme solution. The enzyme reaction is monitored by the decrease in absorbency at 340 nm and compared with enzyme reaction without inhibitor.

Another data set in a line: Solubility in solvents. The class given is physicochemical. The text has this:
The compound is amorphous yellow powder.

The structures appear in SMILES notation. Entries after “also recorded” stand apart in the source; their conditions may differ.

The IC50 is the concentration needed to halve the response being measured. As for `C/C=C/c1c(C)c(OC)c(C(=O)O)c(C(N)=O)c1O` [compound 1, 2-amido, 3-hydroxy, 4-propene, 5-methyl, 6-methoxy benzoic acid], the IC50 in data set [1] was determined as 79 µM; in data set [2], 69 µM. For the same compound, the “solubility in chloroform and hexane” value in “Solubility in solvents” (chloroform, hexane) is listed as “sparingly soluble; also recorded: slightly soluble”. Moreover, the “solubility in organic solvents” value in the data set “Solubility in solvents” (ethanol, methanol, ethyl acetate, dimethyl sulphoxide) is given as “soluble”. For the same compound, the “solubility in aqueous alkaline solution” value in the data set “Solubility in solvents” (sodium bicarbonate, sodium carbonate, sodium hydroxide solution (b24 also potassium bicarbonate, potassium carbonate, lithium hydroxide, potassium hydroxide)) is listed as “soluble”. In the data set “Solubility in solvents” (water), the solubility in water result was “insoluble”.

The values are drawn from patent US7056707B2, “Bioactive compound and its isolation and method of treatment for lipoxygenase inhibition and as free radical scavenging agent” (Council of Scientific and Industrial Research, priority 2002, dated 2006).
